Our source for the relative viability values is the supplement of paper PMC10307832.

Holding throughout (assay): relative viability (nuclei count vs DMSO), 5 days (fraction); higher = more cells survive
Compound in the test “Selisistat + Tozasertib”: C1CC(C2=C(C1)C3=C(N2)C=CC(=C3)Cl)C(=O)N [Selisistat] + Cc1cc(Nc2cc(N3CCN(C)CC3)nc(Sc3ccc(NC(=O)C4CC4)cc3)n2)n[nH]1 [Tozasertib] (partner 0.1 µM)
Put shortly: (§1)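 Each reported value is a median over duplicate plates. It expresses relative viability: treated-well nuclei count divided by vehicle-well nuclei count. Lung cancer cell lines in 1536-well plates were dosed by pin tool a day after seeding, alone with one drug or with a fixed anchor-drug dose plus five library-drug doses (not always all listed) in √10 steps, and nuclei were counted after 5 days.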

Compound in the test “Serdemetan + Linsitinib”: c1ccc2c(CCNc3ccc(Nc4ccncc4)cc3)c[nH]c2c1 [Serdemetan] + C[C@]1(O)C[C@@H](c2nc(-c3ccc4ccc(-c5ccccc5)nc4c3)c3c(N)nccn32)C1 [Linsitinib] (partner 1 µM)
A digest of the protocol:
as §1

Compound in the test “Serdemetan + Foretinib”: c1ccc2c(CCNc3ccc(Nc4ccncc4)cc3)c[nH]c2c1 [Serdemetan] + COc1cc2c(Oc3ccc(NC(=O)C4(C(=O)Nc5ccc(F)cc5)CC4)cc3F)ccnc2cc1OCCCN1CCOCC1 [Foretinib] (partner 0.25 µM)
Put shortly:
as §1

Compound in the test “Serdemetan + Bortezomib”: c1ccc2c(CCNc3ccc(Nc4ccncc4)cc3)c[nH]c2c1 [Serdemetan] + CC(C)C[C@H](NC(=O)[C@H](Cc1ccccc1)NC(=O)c1cnccn1)B(O)O [Bortezomib] (partner 0.002 µM)
A digest of the protocol:
as §1

On to PC-3 [JPC-3], for which the relative viability amounted to 0.917 in the test with Selisistat + Tozasertib (first compound 0.4 µM); 0.853 with Selisistat + Tozasertib (first compound 1.265 µM); 0.82 in the test with Selisistat + Tozasertib (first compound 4 µM); 0.857 with Selisistat + Tozasertib (first compound 12.65 µM); 0.915 with Selisistat + Tozasertib (first compound 40 µM); 0.92 in the test with Serdemetan + Linsitinib (first compound 0.04 µM). The relative viability with Serdemetan + Linsitinib (first compound 0.1265 µM) is 0.972; in the test with Serdemetan + Linsitinib (first compound 1.265 µM), 0.919; with Serdemetan + Linsitinib (first compound 4 µM), 0.985; in the test with Serdemetan + Foretinib (first compound 0.04 µM) it was 0.98; in the test with Serdemetan + Foretinib (first compound 0.1265 µM), 1; with Serdemetan + Foretinib (first compound 0.4 µM), 0.946. The relative viability was found to be 1.09 with Serdemetan + Foretinib (first compound 1.265 µM); 1.06 with Serdemetan + Foretinib (first compound 4 µM); 0.868 in the test with Serdemetan + Bortezomib (first compound 0.04 µM); 0.861 with Serdemetan + Bortezomib (first compound 0.1265 µM); 0.755 in the test with Serdemetan + Bortezomib (first compound 1.265 µM); 0.812 with Serdemetan + Bortezomib (first compound 4 µM).
With PC-14, the relative viability with Selisistat + Tozasertib (first compound 0.4 µM) came to 0.649; in the test with Selisistat + Tozasertib (first compound 1.265 µM), 0.563; with Selisistat + Tozasertib (first compound 4 µM), 0.522; with Selisistat + Tozasertib (first compound 12.65 µM), 0.581; with Selisistat + Tozasertib (first compound 40 µM), 0.656; with Serdemetan + Linsitinib (first compound 0.04 µM), 0.901. Also, the relative viability came out at 0.952 in the test with Serdemetan + Linsitinib (first compound 0.1265 µM); 0.909 with Serdemetan + Linsitinib (first compound 0.4 µM); 0.78 with Serdemetan + Linsitinib (first compound 1.265 µM); 0.805 in the test with Serdemetan + Linsitinib (first compound 4 µM); 0.862 with Serdemetan + Foretinib (first compound 0.04 µM); 0.939 in the test with Serdemetan + Foretinib (first compound 0.1265 µM). The relative viability was found to be 0.376 with Serdemetan + Foretinib (first compound 0.4 µM); 0.83 in the test with Serdemetan + Foretinib (first compound 1.265 µM); 1.1 with Serdemetan + Foretinib (first compound 4 µM); 0.924 in the test with Serdemetan + Bortezomib (first compound 0.04 µM); 0.797 with Serdemetan + Bortezomib (first compound 0.1265 µM); 0.791 in the test with Serdemetan + Bortezomib (first compound 0.4 µM). For the same cell line, the values for the relative viability with Serdemetan + Bortezomib (first compound 1.265 µM) and with Serdemetan + Bortezomib (first compound 4 µM) were 0.606 and 0.497, respectively.
Turning to RERF-LC-KJ, the relative viability is 0.662 with Selisistat + Tozasertib (first compound 0.4 µM); 0.46 in the test with Selisistat + Tozasertib (first compound 1.265 µM); 0.519 in the test with Selisistat + Tozasertib (first compound 4 µM); 0.403 with Selisistat + Tozasertib (first compound 12.65 µM); 0.371 with Selisistat + Tozasertib (first compound 40 µM); 0.869 in the test with Serdemetan + Linsitinib (first compound 0.04 µM). Moreover, the relative viability with Serdemetan + Linsitinib (first compound 0.1265 µM) amounted to 0.851; with Serdemetan + Linsitinib (first compound 0.4 µM) it was 0.857; with Serdemetan + Linsitinib (first compound 1.265 µM), 0.745; with Serdemetan + Linsitinib (first compound 4 µM) it was 0.727; in the test with Serdemetan + Foretinib (first compound 0.04 µM), 0.836; with Serdemetan + Foretinib (first compound 0.1265 µM), 0.884. The relative viability with Serdemetan + Foretinib (first compound 0.4 µM) is 0.786; with Serdemetan + Foretinib (first compound 1.265 µM), 0.79; with Serdemetan + Foretinib (first compound 4 µM), 0.887; with Serdemetan + Bortezomib (first compound 0.04 µM), 1.19; in the test with Serdemetan + Bortezomib (first compound 0.1265 µM) it was 1.16; in the test with Serdemetan + Bortezomib (first compound 0.4 µM) it was 1.06. In addition, the relative viability with Serdemetan + Bortezomib (first compound 1.265 µM) amounted to 1.03; with Serdemetan + Bortezomib (first compound 4 µM) it was 0.797.
Regarding SK-LU-1, the relative viability stood at 0.365 with Selisistat + Tozasertib (first compound 0.4 µM); 0.329 in the test with Selisistat + Tozasertib (first compound 1.265 µM); 0.302 with Selisistat + Tozasertib (first compound 4 µM); 0.32 in the test with Selisistat + Tozasertib (first compound 12.65 µM); 0.314 with Selisistat + Tozasertib (first compound 40 µM); 1.13 with Serdemetan + Linsitinib (first compound 0.04 µM). The relative viability turned out to be 1.14 with Serdemetan + Linsitinib (first compound 0.1265 µM); 1.07 with Serdemetan + Linsitinib (first compound 0.4 µM); 1.03 in the test with Serdemetan + Linsitinib (first compound 1.265 µM); 0.732 with Serdemetan + Linsitinib (first compound 4 µM); 0.767 in the test with Serdemetan + Foretinib (first compound 0.04 µM); 0.745 in the test with Serdemetan + Foretinib (first compound 0.1265 µM). In addition, the relative viability in the test with Serdemetan + Foretinib (first compound 0.4 µM) worked out at 0.77; with Serdemetan + Foretinib (first compound 4 µM), 0.61; in the test with Serdemetan + Bortezomib (first compound 0.04 µM), 1.15; with Serdemetan + Bortezomib (first compound 0.1265 µM) it was 0.921; in the test with Serdemetan + Bortezomib (first compound 0.4 µM), 1.24; in the test with Serdemetan + Bortezomib (first compound 1.265 µM), 1.1. For the same cell line, the relative viability in the test with Serdemetan + Bortezomib (first compound 4 µM) is 0.988.
As for SW 1573, the relative viability in the test with Selisistat + Tozasertib (first compound 0.4 µM) amounted to 0.206; with Selisistat + Tozasertib (first compound 1.265 µM), 0.175; with Selisistat + Tozasertib (first compound 4 µM), 0.175; with Selisistat + Tozasertib (first compound 12.65 µM), 0.206; in the test with Selisistat + Tozasertib (first compound 40 µM), 0.184; in the test with Serdemetan + Linsitinib (first compound 0.04 µM), 0.81. The relative viability with Serdemetan + Linsitinib (first compound 0.1265 µM) turned out to be 0.769; with Serdemetan + Linsitinib (first compound 0.4 µM), 0.738; in the test with Serdemetan + Linsitinib (first compound 1.265 µM) it was 0.346; with Serdemetan + Linsitinib (first compound 4 µM), 0.258; with Serdemetan + Foretinib (first compound 0.04 µM), 0.898; with Serdemetan + Foretinib (first compound 0.1265 µM), 0.815. For the same cell line, the relative viability was 0.877 with Serdemetan + Foretinib (first compound 0.4 µM); 0.668 in the test with Serdemetan + Foretinib (first compound 1.265 µM); 0.422 in the test with Serdemetan + Foretinib (first compound 4 µM); 0.931 with Serdemetan + Bortezomib (first compound 0.04 µM); 1.01 in the test with Serdemetan + Bortezomib (first compound 0.1265 µM); 0.892 with Serdemetan + Bortezomib (first compound 0.4 µM). Also, the relative viability with Serdemetan + Bortezomib (first compound 1.265 µM) amounted to 0.308; with Serdemetan + Bortezomib (first compound 4 µM), 0.242.
Regarding UMC-11, the relative viability amounted to 0.212 with Selisistat + Tozasertib (first compound 0.4 µM); 0.21 in the test with Selisistat + Tozasertib (first compound 1.265 µM); 0.209 in the test with Selisistat + Tozasertib (first compound 4 µM); 0.205 in the test with Selisistat + Tozasertib (first compound 12.65 µM); 0.212 with Selisistat + Tozasertib (first compound 40 µM); 1.03 with Serdemetan + Linsitinib (first compound 0.04 µM). Also, the relative viability with Serdemetan + Linsitinib (first compound 0.1265 µM) was determined as 0.902; with Serdemetan + Linsitinib (first compound 0.4 µM) it was 0.873; in the test with Serdemetan + Linsitinib (first compound 1.265 µM), 0.701; with Serdemetan + Linsitinib (first compound 4 µM), 0.828; with Serdemetan + Foretinib (first compound 0.04 µM), 0.919; with Serdemetan + Foretinib (first compound 0.1265 µM) it was 1.02. In addition, the relative viability in the test with Serdemetan + Foretinib (first compound 4 µM) was 0.828; with Serdemetan + Bortezomib (first compound 0.04 µM) it was 0.614; with Serdemetan + Bortezomib (first compound 0.1265 µM), 0.666; with Serdemetan + Bortezomib (first compound 0.4 µM), 0.668; in the test with Serdemetan + Bortezomib (first compound 1.265 µM), 0.53; in the test with Serdemetan + Bortezomib (first compound 4 µM), 0.839.
